Results reported in patent publication US20250115597A1, “TYK2 INHIBITORS AND COMPOSITIONS AND METHODS THEREOF” (LYNK PHARMACEUTICALS CO. LTD., priority 2021, published 2025).
Read-outs that look alike come from different tables or passages of the source.

How the values were obtained:
pSTAT1 = test: Phosphorylation inhibition of STAT in human whole blood, IFN-alpha stimulated (flow cytometry); type: cell-based; settings: 20 min, read-out: IC50 on pSTAT1 inhibition in h WB
Protocol: Phosphorylation Inhibition of STAT in Human PBMC and Human Whole Blood Testing:
The inhibitory potential of test articles in human PBMC and human whole blood assay was evaluated by the method of flow cytometry.
IFN-alpha will activate JAK1 and TYK2 kinase in T cells by binding to IFN receptors, and then lead to phosphorylation of STAT1 and STAT2. The phosphorylated STAT1 enter nuclear and promote transcription and expression of IFN-gamma. To evaluate the efficacy of TYK2i in T cells, freshly prepared human PBMC or freshly collected human whole blood will be stimulated with certain unit of human IFN-alpha (Universal Type I IFN(1MU), R&D, 11200-2) for 20 mins in incubator. After stimulation, fix cells with Phosflow™ Fix Buffer I (BD, 557870), and then collect fixed cells by centrifugation (500 g, 8 min). Wash cells once with pre-cooled PBS, and then permeabilize cells with cold Perm Buffer III buffer (BD, 558050) for 45 mins on ice. Collect cells by centrifugation (600 g, 8 min) and washed twice with cold PBS. Stain cells with anti-human CD3 (FITC Mouse Anti-Human CD3, BD, 555332) and anti-pSTAT1_Y701(Alexa Fluor 647 Mouse Anti-Stat1 (pY701), BD, 612597) antibodies. Detect pSTAT1 by flow cytometry (CytoFlex S) and analyze data with FlowJo and GraphPad Prism 8 software. IC50 values of test articles were determined using 4-parameter logistic equation.

TYK2-JH2 domain = target: T1, TYK2-JH2 domain (Homo sapiens, UniProt P29597); test: Binding activity test for JH2 domain of TYK2 (Tb-antibody/tracer FRET); settings: for JAK1/TYK2 selectivity: ratio JAK1-JH2 IC50 / TYK2-JH2 IC50
T1 construct: IC50 on JH2 domain activity (nM)
T1 sequence (P29597 589-875 limits assumed): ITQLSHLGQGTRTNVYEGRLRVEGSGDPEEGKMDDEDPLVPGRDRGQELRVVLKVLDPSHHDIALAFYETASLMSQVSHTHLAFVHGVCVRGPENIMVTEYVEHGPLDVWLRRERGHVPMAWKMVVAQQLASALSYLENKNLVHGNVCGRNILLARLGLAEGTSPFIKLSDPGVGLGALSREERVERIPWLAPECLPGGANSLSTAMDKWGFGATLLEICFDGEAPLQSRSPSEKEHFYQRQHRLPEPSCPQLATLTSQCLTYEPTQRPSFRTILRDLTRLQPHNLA
In short: (§1)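 Compounds tested as 11-point 3-fold serial dilutions against the JH2 domain in a Tb-antibody/tracer FRET binding format. Plates incubated 60 min at 25° C, then overnight at 4° C, before FRET reading.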

JAK1-JH2 domain = target: T2, JAK1-JH2 domain (Homo sapiens, UniProt P23458); test: Binding activity test for JH2 domain of JAK1 (Tb-antibody/tracer FRET)
T2 construct: IC50 on JH2 domain activity (nM)
T2 sequence (P23458 583-855 limits assumed): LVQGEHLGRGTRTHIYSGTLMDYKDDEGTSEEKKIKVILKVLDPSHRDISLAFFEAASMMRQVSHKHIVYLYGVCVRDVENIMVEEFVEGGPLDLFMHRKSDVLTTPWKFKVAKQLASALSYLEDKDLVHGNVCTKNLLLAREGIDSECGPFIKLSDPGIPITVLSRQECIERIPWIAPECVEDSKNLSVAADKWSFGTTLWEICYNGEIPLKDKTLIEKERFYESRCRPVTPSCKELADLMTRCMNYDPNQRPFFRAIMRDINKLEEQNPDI
In short: as §1

[1] = target: T3, Ba/F3-FL-TYK2-P760L cells (Homo sapiens, UniProt P29597, P760L, cells depend on it); test: Anti-proliferative assay, Ba/F3-FL-TYK2-P760L cells (Cell-Titer Glo); type: cell-based; settings: 72 h, read-out: BaF3-FL-T2P760L IC50
T3 construct: BaF3-FL-T2P760L (nM)
T3 sequence (P29597 whole entry P760L): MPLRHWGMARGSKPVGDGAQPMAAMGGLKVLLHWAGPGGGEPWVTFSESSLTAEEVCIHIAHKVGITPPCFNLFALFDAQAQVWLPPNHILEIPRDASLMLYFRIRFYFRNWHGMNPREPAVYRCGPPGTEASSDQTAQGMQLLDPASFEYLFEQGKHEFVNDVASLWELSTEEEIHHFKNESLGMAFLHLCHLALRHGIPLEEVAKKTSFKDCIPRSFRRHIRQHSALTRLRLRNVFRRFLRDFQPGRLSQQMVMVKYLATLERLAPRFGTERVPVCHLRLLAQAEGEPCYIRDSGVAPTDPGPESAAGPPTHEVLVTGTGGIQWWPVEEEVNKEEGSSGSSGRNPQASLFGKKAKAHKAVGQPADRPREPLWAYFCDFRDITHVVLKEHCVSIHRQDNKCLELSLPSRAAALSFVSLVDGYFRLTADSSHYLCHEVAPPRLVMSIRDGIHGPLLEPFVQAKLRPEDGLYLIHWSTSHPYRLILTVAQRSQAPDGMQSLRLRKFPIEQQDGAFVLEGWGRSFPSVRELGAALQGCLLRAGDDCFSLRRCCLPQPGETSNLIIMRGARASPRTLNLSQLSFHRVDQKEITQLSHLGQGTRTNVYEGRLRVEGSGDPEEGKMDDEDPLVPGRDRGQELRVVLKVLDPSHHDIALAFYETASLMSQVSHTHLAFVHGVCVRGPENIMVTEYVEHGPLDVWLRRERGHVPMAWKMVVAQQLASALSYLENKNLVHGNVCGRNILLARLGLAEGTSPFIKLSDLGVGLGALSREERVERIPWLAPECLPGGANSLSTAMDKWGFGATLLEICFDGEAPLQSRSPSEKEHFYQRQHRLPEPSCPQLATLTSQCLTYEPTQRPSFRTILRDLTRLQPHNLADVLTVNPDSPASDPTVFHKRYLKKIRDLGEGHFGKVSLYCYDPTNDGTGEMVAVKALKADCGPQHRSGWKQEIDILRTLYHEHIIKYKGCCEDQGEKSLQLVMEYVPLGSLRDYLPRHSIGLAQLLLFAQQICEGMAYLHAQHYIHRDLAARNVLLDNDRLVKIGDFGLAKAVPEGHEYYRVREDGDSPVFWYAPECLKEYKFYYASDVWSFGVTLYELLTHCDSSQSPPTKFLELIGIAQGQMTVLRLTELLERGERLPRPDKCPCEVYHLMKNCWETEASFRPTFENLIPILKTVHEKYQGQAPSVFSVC
In short: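 Ba/F3 cells made IL-3-independent by TEL-fused or full-length mutant JAK-family kinases, seeded at 2000/well and dosed after 24 h with 9 three-fold dilutions topping at 20 μM. Viability after 72 h at 37 °C, 5% CO2 by Cell-Titer Glo ATP luminescence.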

[2] = Microsomal metabolic stability assay; type: in vitro ADME; settings: pH 7.4, 0.5 mg/mL protein, 1 μM compound
In short: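 Test article at 1 μM with 0.5 mg/mL microsomal protein and 2 mM NADPH, in 100 mM potassium phosphate pH 7.4 with 1.0 mM EDTA at 37 °C. Sampled at 0–45 min and quantified by LC/MS/MS. T1/2 from the slope of ln % remaining vs time.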

[3] = Hepatocytes metabolic stability assay; type: in vitro ADME; settings: cryopreserved hepatocytes, human hepatocytes, 1.0×10^6 cells/mL; for CLint scaled at 1 μM: read-out: Human hepatocyte Clint(liver); for half-life at 1 μM: read-out: Human hepatocyte stability T1/2
Protocol: Hepatocytes Metabolic Stability Assay
The vials of cryopreserved hepatocytes were removed from the liquid nitrogen container and immediately immersed in a 37° C. water bath for approximately 2 min. The melted ice pellets were transferred into tubes containing 50 mL of pre-warmed thawing medium and mixed well by gently inverting the tubes, and then centrifuged at 500 rpm for 3 minutes at room temperature. The supernatants were discarded, and cell pellets were re-suspended by adding appropriate volumes of pre-warmed incubation medium. The cells viability of each species was determined using Trypan Blue exclusion. Add 50 μL of pre-warmed 2× dosing solution to the wells designated for different time points. Then 50 μL of cells suspension (2×10^6 cells/mL) were added into appropriate wells at corresponding time points of T15, T30, T60, T120. Start timing and put the plate in an incubator at 37° C. For TO sample, add 300 μL of ACN containing internal standard to the wells, mix gently, then add 50 μL of pre-warmed hepatocytes solution (2×10^6 cells/mL). The concentration of test compound was 1 μM and 1.0×10^6 cells/mL in the final incubation. At each corresponding time point, test and control compounds reaction samples were stopped by adding 300 μL acetonitrile containing internal standard. All sample plates were thoroughly mixed and centrifuged at 5000×g for 15 minutes. The supernatants were diluted at ratio of 1:1 with ultra-pure water for test and positive controls. Then submitted for LC-MS/MS analysis.
The analyte/internal standard peak area ratios were converted to percentage remaining with the following equation: […]
The in vitro elimination constant, k of test compounds and control compounds were calculated from a log linear plot of % Remaining versus time, then the half-life (T1/2), the estimation of the in vitro hepatic intrinsic clearance (CLint) values were calculated from substrate disappearance rate in hepatocytes incubation: […]

[4] = human whole blood, IFN-alpha 20 mins, CD3 cells
[5] = dog liver microsomes, read-out: Dog LM Clint
[6] = dog liver microsomes, read-out: Dog LM T½
[7] = human liver microsomes, read-out: Human LM Clint
[8] = human liver microsomes, read-out: Human LM T½
[9] = rat liver microsomes, read-out: Rat LM Clint
[10] = rat liver microsomes, read-out: Rat LM T½

| SMILES | IC50 (pSTAT1; [4]) | IC50 (TYK2-JH2 domain) | JAK1/TYK2 selectivity (TYK2-JH2 domain) | IC50 (JAK1-JH2 domain) | GI50 [1] | microsomal CLint at 1 μM [2, 5] | half-life at 1 μM [2, 6] | microsomal CLint at 1 μM [2, 7] | half-life at 1 μM [2, 8] | microsomal CLint at 1 μM [2, 9] | half-life at 1 μM [2, 10] | CLint scaled at 1 μM [3] | half-life at 1 μM [3] | IC50 (pSTAT1; Homo sapiens) |
| --- | --- | --- | --- | --- | --- | --- | --- | --- | --- | --- | --- | --- | --- | --- |
| [2H]C([2H])([2H])NC(=O)c1cnc(NC(=O)[C@@H]2C[C@@H]2F)cc1Nc1ccc2cnn(CC)c2c1OC (relative stereo) [Example 256, 4-((1-Ethyl-7-methoxy-1H-indazol-6-yl)amino)-6-(cis-2-fluorocyclopropanecarboxamido)-N-(methyl-d3)nicotinamide] | 256 nM | 0.265 nM | 40.8 | 10.8 nM | 69.5 nM |  |  |  |  |  |  |  |  |  |
| [2H]C([2H])([2H])NC(=O)c1cnc(NC(=O)C2CC2)cc1Nc1cn(C)c2ccn(CCO)c(=O)c12 [Example 113, 6-(Cyclopropanecarboxamido)-4-((5-(2-hydroxyethyl)-1-methyl-4-oxo-4,5-dihydro-1H-pyrrolo[3,2-c]pyridin-3-yl)amino)-N-(methyl-d3)nicotinamide] | 344 nM |  |  |  | 2390 nM |  |  |  |  |  |  |  |  |  |
| [2H]C([2H])([2H])NC(=O)c1cnc(Nc2ccn(C)n2)cc1Nc1cc(F)c2cnn(CC)c2c1OC [Example 151, 4-((1-Ethyl-4-fluoro-7-methoxy-1H-indazol-6-yl)amino)-N-(methyl-d3)-6-((1-methyl-1H-pyrazol-3-yl)amino)nicotinamide] | 1860 nM | 0.46 nM | 28.5 | 13.1 nM | 77.7 nM | 46.8 µL/min/mg | 29.6 min | 63.5 µL/min/mg | 21.8 min | 66.3 µL/min/mg | 20.9 min | 9.1 mL/min/kg | 194 min |  |
| [2H]C([2H])([2H])NC(=O)c1cnc(Nc2cc(C)nc(C)n2)cc1Nc1cc(F)c2cnn(CC)c2c1OC [Example 152, 6-((2,6-Dimethylpyrimidin-4-yl)amino)-4-((1-ethyl-4-fluoro-7-methoxy-1H-indazol-6-yl)amino)-N-(methyl-d3)nicotinamide] | 78.5 nM | 0.171 nM | 62.6 | 10.7 nM | 27.9 nM | 478 µL/min/mg | 2.9 min | 42.4 µL/min/mg | 32.7 min | 54.1 µL/min/mg | 25.6 min |  | > 240 min |  |
| [2H]C([2H])([2H])NC(=O)c1cnc(Nc2ccncn2)cc1Nc1cc(F)c2cnn(CC)c2c1OC [Example 157, 4-((1-Ethyl-4-fluoro-7-methoxy-1H-indazol-6-yl)amino)-N-(methyl-d3)-6-(pyrimidin-4-ylamino)nicotinamide] |  | 0.357 nM | 70.6 | 25.2 nM | 53.9 nM | 42.1 µL/min/mg | 32.9 min | 79.9 µL/min/mg | 17.4 min | 106 µL/min/mg | 13.2 min | 13.9 mL/min/kg | 127 min |  |
| [2H]C([2H])([2H])NC(=O)c1cnc(NC(=O)C2CC2)cc1Nc1nn(CC2CC2)c2ccn(CC(F)(F)F)c(=O)c12 [Example 203, 6-(Cyclopropanecarboxamido)-4-((1-(cyclopropylmethyl)-4-oxo-5-(2,2,2-trifluoroethyl)-4,5-dihydro-1H-pyrazolo[4,3-c]pyridin-3-yl)amino)-N-(methyl-d3)nicotinamide] | 468 nM | 0.173 nM | 106.7 | 18.5 nM | 46.6 nM |  |  |  |  |  |  |  |  |  |
| [2H]C([2H])([2H])NC(=O)c1nnc(NC(=O)C2CC2)cc1Nc1cn(C)c2ccn(C)c(=O)c12 [Example 224, 6-(Cyclopropanecarboxamido)-4-((1,5-dimethyl-4-oxo-4,5-dihydro-1H-pyrrolo[3,2-c]pyridin-3-yl)amino)-N-(methyl-d3)pyridazine-3-carboxamide] | 426 nM |  |  |  | 214 nM |  |  |  |  |  |  |  |  |  |
| [2H]C([2H])([2H])NC(=O)c1cnc(NC(=O)C2CC2)cc1Nc1ccn2ncc(Cl)c2c1OC [Example 235, 4-((3-Chloro-4-methoxypyrazolo[1,5-a]pyridin-5-yl)amino)-6-(cyclopropanecarboxamido)-N-(methyl-d3)nicotinamide] | 440 nM | 0.262 nM | 25.7 | 6.74 nM | 44.7 nM |  |  |  |  |  |  |  |  |  |
| [2H]C([2H])([2H])NC(=O)c1cnc(NC(=O)C2CC2)cc1Nc1ccn2ncc(CC#N)c2c1OC [Example 239, 4-((3-(Cyanomethyl)-4-methoxypyrazolo[1,5-a]pyridin-5-yl)amino)-6-(cyclopropanecarboxamido)-N-(methyl-d3)nicotinamide] | 157 nM | 0.188 nM | 28.8 | 5.41 nM | 84.7 nM |  |  |  |  |  |  |  |  |  |
| [2H]C([2H])([2H])NC(=O)c1cnc(NC(=O)C2CC2)cc1Nc1ccc2ccn(CC)c2c1OC [Example 244, 6-(Cyclopropanecarboxamido)-4-((1-ethyl-7-methoxy-1H-indol-6-yl)amino)-N-(methyl-d3)nicotinamide] |  | 0.125 nM | 36.6 | 4.58 nM | 18.1 nM |  |  |  |  |  |  |  |  | 190 nM |
| C=CCn1cc(Nc2cc(NC(=O)C3CC3)ncc2C(=O)NC)c2c(=O)n(CC)ccc21 [Example 246, 4-((1-Allyl-5-ethyl-4-oxo-4,5-dihydro-1H-pyrrolo[3,2-c]pyridin-3-yl)amino)-6-(cyclopropanecarboxamido)-N-methylnicotinamide] | 287 nM | 0.156 nM | 75.9 | 11.8 nM | 75.7 nM |  |  |  |  |  |  |  |  |  |
| [2H]C([2H])([2H])NC(=O)c1cnc(NC(=O)C2CC2)cc1Nc1ncc2cnn(CC(F)(F)F)c2c1OC [Example 266, 6-(Cyclopropanecarboxamido)-4-((7-methoxy-1-(2,2,2-trifluoroethyl)-1H-pyrazolo[4,3-c]pyridin-6-yl)amino)-N-(methyl-d3)nicotinamide] | 94.3 nM | 0.287 nM | 154 | 44.2 nM | 76.2 nM |  |  |  |  |  |  |  |  |  |
